Measurements: PubChem BioAssay (NCI)
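At the GI50, growth is halved. TGI: concentration producing complete growth inhibition.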

Legend:
Test in all cases: inhibition of tumour cell growth, NCI panel, 384-well format
NCI-H460 NSCLC = tested on: NCI-H460 NSCLC
OVCAR-5 ovarian = tested on: OVCAR-5 ovarian
HCC-2998 colon = tested on: HCC-2998 colon
SNB-19 CNS = tested on: SNB-19 CNS
HL-60(TB) leukemia = tested on: HL-60(TB) leukemia
SN12C renal = tested on: SN12C renal
OVCAR-8 ovarian = tested on: OVCAR-8 ovarian
NCI-H522 lung = tested on: NCI-H522 lung
SR leukemia = tested on: SR leukemia
MDA-MB-468 breast = tested on: MDA-MB-468 breast
TK-10 renal = tested on: TK-10 renal
NCI/ADR-RES ovarian = tested on: NCI/ADR-RES ovarian
NCI-H226 lung = tested on: NCI-H226 lung
SK-MEL-5 melanoma = tested on: SK-MEL-5 melanoma
COLO 205 colon = tested on: COLO 205 colon
KM12 colon = tested on: KM12 colon
RXF 393 renal = tested on: RXF 393 renal
SF-539 CNS = tested on: SF-539 CNS
UACC-62 melanoma = tested on: UACC-62 melanoma
LOX IMVI melanoma = tested on: LOX IMVI melanoma
MDA-MB-435 melanoma = tested on: MDA-MB-435 melanoma
CAKI-1 renal = tested on: CAKI-1 renal
SNB-75 CNS = tested on: SNB-75 CNS
SF-268 CNS = tested on: SF-268 CNS
BT-549 breast = tested on: BT-549 breast
SK-MEL-28 melanoma = tested on: SK-MEL-28 melanoma
M14 melanoma = tested on: M14 melanoma
OVCAR-4 ovarian = tested on: OVCAR-4 ovarian
HOP-62 NSCLC = tested on: HOP-62 NSCLC
MOLT-4 leukemia = tested on: MOLT-4 leukemia
NCI-H23 lung = tested on: NCI-H23 lung
NCI-H322M lung = tested on: NCI-H322M lung
UO-31 renal = tested on: UO-31 renal
A549 NSCLC = tested on: A549 NSCLC
RPMI-8226 leukemia = tested on: RPMI-8226 leukemia
UACC-257 melanoma = tested on: UACC-257 melanoma
HS 578T breast = tested on: HS 578T breast
EKVX NSCLC = tested on: EKVX NSCLC
OVCAR-3 ovarian = tested on: OVCAR-3 ovarian
MALME-3M melanoma = tested on: MALME-3M melanoma
CCRF-CEM leukemia = tested on: CCRF-CEM leukemia
SW-620 colon = tested on: SW-620 colon

CN1CC[C@@H](c2c(O)cc(O)c3c(=O)cc(-c4ccccc4Cl)oc23)[C@@H](O)C1
GI50 (NCI-H460 NSCLC): 0.0215 µM | TGI (NCI-H460 NSCLC): 0.0496 µM | GI50 (OVCAR-5 ovarian): 0.0242 µM | TGI (OVCAR-5 ovarian): 0.0708 µM | GI50 (HCC-2998 colon): 0.0424 µM | TGI (HCC-2998 colon): 0.151 µM | GI50 (SNB-19 CNS): 0.0503 µM | TGI (SNB-19 CNS): > 100 µM | GI50 (HL-60(TB) leukemia): 0.0133 µM | TGI (HL-60(TB) leukemia): 0.0263 µM | GI50 (SN12C renal): 0.028 µM | TGI (SN12C renal): 0.0911 µM | GI50 (OVCAR-8 ovarian): 0.025 µM | TGI (OVCAR-8 ovarian): 0.078 µM | GI50 (NCI-H522 lung): 0.109 µM | TGI (NCI-H522 lung): 0.252 µM | GI50 (SR leukemia): 0.0102 µM | TGI (SR leukemia): 0.0222 µM | GI50 (MDA-MB-468 breast): 0.0283 µM | TGI (MDA-MB-468 breast): 0.0874 µM | GI50 (TK-10 renal): 0.0357 µM | TGI (TK-10 renal): > 100 µM | GI50 (NCI/ADR-RES ovarian): 0.0896 µM | TGI (NCI/ADR-RES ovarian): 0.319 µM | GI50 (NCI-H226 lung): 0.0187 µM | TGI (NCI-H226 lung): 0.0639 µM | GI50 (SK-MEL-5 melanoma): 0.0298 µM | TGI (SK-MEL-5 melanoma): 0.0568 µM | GI50 (COLO 205 colon): 0.0313 µM | TGI (COLO 205 colon): 0.0824 µM | GI50 (KM12 colon): 0.0279 µM | TGI (KM12 colon): 0.244 µM | GI50 (RXF 393 renal): 0.0191 µM | TGI (RXF 393 renal): 0.0386 µM | GI50 (SF-539 CNS): 0.0247 µM | TGI (SF-539 CNS): 0.072 µM | GI50 (UACC-62 melanoma): 0.0178 µM | TGI (UACC-62 melanoma): 0.0407 µM | GI50 (LOX IMVI melanoma): 0.0208 µM | TGI (LOX IMVI melanoma): 0.0632 µM | GI50 (MDA-MB-435 melanoma): 0.103 µM | TGI (MDA-MB-435 melanoma): 0.255 µM | GI50 (CAKI-1 renal): 0.0351 µM | TGI (CAKI-1 renal): > 100 µM | GI50 (SNB-75 CNS): 0.113 µM | TGI (SNB-75 CNS): 0.244 µM | GI50 (SF-268 CNS): 0.0178 µM | TGI (SF-268 CNS): 0.0386 µM | GI50 (BT-549 breast): 0.0256 µM | TGI (BT-549 breast): 0.0908 µM | GI50 (SK-MEL-28 melanoma): 0.0285 µM | TGI (SK-MEL-28 melanoma): 0.132 µM | GI50 (M14 melanoma): 0.0325 µM | TGI (M14 melanoma): 0.116 µM | GI50 (OVCAR-4 ovarian): 0.0596 µM | TGI (OVCAR-4 ovarian): 0.282 µM | GI50 (HOP-62 NSCLC): 0.0202 µM | TGI (HOP-62 NSCLC): 0.0456 µM | GI50 (MOLT-4 leukemia): 0.0237 µM | TGI (MOLT-4 leukemia): 0.045 µM | GI50 (NCI-H23 lung): 0.0301 µM | TGI (NCI-H23 lung): 0.112 µM | GI50 (NCI-H322M lung): 0.0337 µM | TGI (NCI-H322M lung): 0.126 µM | GI50 (UO-31 renal): 0.036 µM | TGI (UO-31 renal): > 100 µM | GI50 (A549 NSCLC): 0.0349 µM | TGI (A549 NSCLC): > 100 µM | GI50 (RPMI-8226 leukemia): 0.0227 µM | TGI (RPMI-8226 leukemia): 0.0513 µM | GI50 (UACC-257 melanoma): 0.0515 µM | TGI (UACC-257 melanoma): 0.173 µM | GI50 (HS 578T breast): 0.0228 µM | TGI (HS 578T breast): 0.0479 µM | GI50 (EKVX NSCLC): 0.0599 µM | TGI (EKVX NSCLC): 0.299 µM | GI50 (OVCAR-3 ovarian): 0.0331 µM | TGI (OVCAR-3 ovarian): 0.095 µM | GI50 (MALME-3M melanoma): 0.0425 µM | TGI (MALME-3M melanoma): 0.141 µM | GI50 (CCRF-CEM leukemia): 0.0194 µM | TGI (CCRF-CEM leukemia): 0.0361 µM | GI50 (SW-620 colon): 0.0348 µM | TGI (SW-620 colon): 0.204 µM
